The results in this text go back to patent US20260376293A1, “METHODS FOR STUDYING GPR158 PHARMACOLOGY AND IDENTIFICATION OF ITS LIGANDS” (UNIVERSITY OF FLORIDA RESEARCH FOUNDATION, INCORPORATED, priority 2022, published 2026).

The structures appear in SMILES notation.

Assay [1] deals with layer II-III pyramidal neurons. As to the kind of experiment: Whole cell recordings, layer II-III prelimbic cortex neurons, WT mice. To be noted: 1 mM. Type of assay: cell-based, mouse. On the procedure: (§1) FIGS. 14A-14H. Effect of glycine on neuronal excitability. A) Schematic of the electrophysiological recordings in slice preparation targeting mPFC neurons of layer II-III. Experiments were conducted with a cocktail of synaptic blockers: picrotoxin (100 μM) (blockade of GABAA receptor chloride channels), strychnine (1 μM) (antagonist of glycine and acetylcholine ionotropic receptors), CNQX (20 μM) (AMPA receptors antagonist), and APV (50 μM) (NMDAR antagonist). B) Representative traces of voltage responses to a 200 pA current ramp injection under control conditions and after bath application of glycine (1 mM) in WT mice. C) Quantification of changes in excitability by number of action potentials fired in response to 200 pA current ramp (n=8 neurons from 5 mice). Nonparametric t-test; Wilcoxon test, **p<0.01. D) Quantification of changes in excitability by rheobase current under control condition and glycine application (n=8 neurons from 5 mice). Nonparametric t-test; Wilcoxon test, **p<0.01. E) Representative traces of voltage responses to a 200 pA current ramp injection obtained from layer II-III pyramidal neurons in GPR158 KO mice under control conditions and during bath application of glycine (1 mM). F) Quantification of changes in excitability by number of action potentials fired in response to 200 pA current ramp (n=4 neurons/3 mice). Nonparametric t-test; Wilcoxon test, ns=p>0.05. G) Quantification of changes in excitability by rheobase current under control condition and glycine application (n=4 neurons/3 mice). Nonparametric t-test; Wilcoxon test, ns=p>0.05. H) Schematic representation of the proposed mechanism of glycine effects on mGlyR. In 14C, 14D, 14F, and 14G, solid circles (Ctrl), circles with no fill (Glycine), columns with no fill (Ctrl), and columns with dotted fill (Glycine).
FIGS. 15A-15H. Effect of glycine and taurine on excitability of layer V neurons and membrane properties of layer II/III neurons in wild type and GPR158 knockout mice. A) Representative traces of voltage responses to a 200 pA current ramp injection obtained from layer V pyramidal neurons in WT mice under control conditions and during bath application of glycine (1 mM). B) Quantification of glycine effects on neuronal excitability by number of action potentials fired in response to 200 pA current ramp under control condition and glycine application (n=4 neurons/3 mice). Nonparametric t-test; Wilcoxon test, ns=p>0.05. C) Quantification of glycine effects on neuronal excitability by rheobase current under control condition and glycine application (n=4 neurons/3 mice). Nonparametric t-test; Wilcoxon test, ns=p>0.05. D) Resting membrane potential of layer V pyramidal neurons in WT mice under control conditions and during bath application of glycine (n=4 neurons/3 mice). […]

Assay [2] deals with layer II-III pyramidal neurons of GPR158 KO mice. The assay can be described thus: Whole cell recordings, layer II-III neurons, GPR158 KO mice. Type of assay: cell-based, mouse. To be noted: for rheobase current / number of action potentials fired / resting membrane potential: 1 mM, GPR158 KO; for number of action potentials fired: 200 pA current ramp; for resting membrane potential: layer II-III. On the procedure:
as §1
FIGS. 15A-15H. Effect of glycine and taurine on excitability of layer V neurons and membrane properties of layer II/III neurons in wild type and GPR158 knockout mice. A) Representative traces of voltage responses to a 200 pA current ramp injection obtained from layer V pyramidal neurons in WT mice under control conditions and during bath application of glycine (1 mM). B) Quantification of glycine effects on neuronal excitability by number of action potentials fired in response to 200 pA current ramp under control condition and glycine application (n=4 neurons/3 mice). Nonparametric t-test; Wilcoxon test, ns=p>0.05. C) Quantification of glycine effects on neuronal excitability by rheobase current under control condition and glycine application (n=4 neurons/3 mice). Nonparametric t-test; Wilcoxon test, ns=p>0.05. D) Resting membrane potential of layer V pyramidal neurons in WT mice under control conditions and during bath application of glycine (n=4 neurons/3 mice). Nonparametric t-test; Wilcoxon test, ns=p>0.05. E) Resting membrane potential of layer II-III pyramidal neurons in WT mice under control conditions and during bath application of glycine (n=6 neurons/4 mice). Nonparametric t-test; Wilcoxon test, ns=p>0.05. F) Resting membrane potential of layer II-III pyramidal neurons in GPR158 KO mice under control conditions and during bath application of glycine (n=4 neurons/3 mice). Nonparametric t-test; Wilcoxon test, ns=p>0.05. G) Resting membrane potential under control conditions and during bath application of taurine (n=9 neurons/5 mice). Paired t-test, p=0.4809. H) Resting membrane potential under control conditions and during bath application of taurine (n=5 neurons/4 mice) Nonparametric t-test; Wilcoxon test, ns=p>0.05, p>0.9999. In FIGS. 15B, 15C, 15D, 15E, and 15F, solid circles (Ctrl), circles with angled-line fill (Glycine), columns with no fill (Ctrl), columns with angled-line fill (Glycine). In 15G and 15H, solid circles (Ctrl), circles with no fill (Taurine), columns with no fill (Ctrl), columns with dotted fill (Taurine).
FIGS. 16A-16F Effect of taurine on neuronal excitability of layer II/III neurons. […]

Where [3] appears, read: 200 pA current ramp, synaptic blockers.

As for `NCC(=O)O` [glycine], in assay [1], the resting membrane potential result is given as “without changes in the resting membrane potential”. Besides, in assay [1] (setting [3]), the “number of action potentials fired” value is given as “significantly increased the number of action potentials” and the rheobase current entry is “decreasing the amount of current necessary to elicit the first action potential”. In assay [2], the rheobase current entry was “ns”, the “number of action potentials fired” value is recorded as “ns” and the resting membrane potential entry is listed as “ns”. Further, the “excitability of layer II-III neurons” value in assay [2] (Gpr158 KO, glycine 1 mM) is on record as “failed to alter excitability”.

As for `NCCS(=O)(=O)O` [taurine, 2-aminoethanesulfonic acid], the rheobase current entry in assay [1] (setting [3]) is “ns”. In assay [2], the rheobase current entry is on record as “ns”, the “number of action potentials fired” value is reported as “ns” and the resting membrane potential result is “ns”.
